Data: patent publication US20220356170A1, “SREBP INHIBITOR COMPRISING A THIOPHENE CENTRAL RING” (Capulus Therapeutics, LLC, priority 2019, published 2022)

Assays:
Test in all cases: Cancer cell growth inhibition, Sulforhodamine B
Format in all cases: cell-based
EFO21 = conditions: Homo sapiens, EFO-21; EFO21 (ovary), 72 hr; Responder Cell Lines
Description: (§1) The ability of select compounds to inhibit cell growth in various cancer cell lines are evaluated. […] The cell lines shown in Table 5 have reduced growth by at least 50% at 10 uM or lower over 72 hr treatment in growth media. The cell lines shown in Table 6 have reduced growth by at least 50% with an IC50 greater than 10 uM.
(§2) Six 10-fold compound dilutions are prepared in DMSO (e.g. 10 mM, 1 mM, 100 uM, 10 uM, 1 uM, and 0.1 uM). Single data points are acquired for each concentration. The final concentration of DMSO is 0.1%. The duration of the treatment is 72 hr. Growth inhibition is measured using Sulforhodamine B in a protein staining assay. Activity of the agents is determined by evaluation the following parameters: IC50, GI50, IC10, TGI, LC50, IC90, and GI90 (where these values can be calculated).

HL-60 = conditions: Homo sapiens; HL-60 (hematological), 72 hr; Responder Cell Lines
Description: as §1, §2

ACHN = conditions: Homo sapiens; ACHN (kidney), 72 hr; Responder Cell Lines
Description: as §1, §2

LOVO = conditions: Homo sapiens; LOVO (colon), 72 hr; Responder Cell Lines
Description: as §1, §2

NCIH358M = conditions: NCI-H358M; NCIH358M (lung), 72 hr; Non-Responder Cell Lines with IC50 >10 uM or Not Determined
Description: as §1, §2

NCIH460 = conditions: Homo sapiens, NCI-H460; NCIH460 (lung), 72 hr; Non-Responder Cell Lines with IC50 >10 uM or Not Determined
Description: as §1, §2

L-363 = conditions: Homo sapiens; L-363 (hematological), 72 hr; Responder Cell Lines
Description: as §1, §2

T24 = conditions: Homo sapiens, T-24; T24 (bladder), 72 hr; Non-Responder Cell Lines with IC50 >10 uM or Not Determined
Description: as §1, §2

SKMEL28 = conditions: Homo sapiens, SK-MEL-28; SKMEL28 (skin), 72 hr; Non-Responder Cell Lines with IC50 >10 uM or Not Determined
Description: as §1, §2

K-562 = conditions: Homo sapiens, K562; K-562 (hematological), 72 hr; Responder Cell Lines
Description: as §1, §2

SKMEL5 = conditions: Homo sapiens, SK-MEL-5, 72 h, SKMEL5 (skin)
Description: as §1, §2

SKNAS = conditions: Homo sapiens, SK-N-AS; SKNAS (brain), 72 hr; Non-Responder Cell Lines with IC50 >10 uM or Not Determined
Description: as §1, §2

OVCAR3 = conditions: Homo sapiens, OVCAR-3, 72 h, OVCAR3 (ovary)
Description: as §1, §2

ASPC1 = conditions: Homo sapiens; ASPC1 (pancreas), 72 hr; Responder Cell Lines
Description: as §1, §2

PLCPRF5 = conditions: Homo sapiens, PLC-PRF-5, 72 h, PLCPRF5 (liver)
Description: as §1, §2

HEPG2 = conditions: Homo sapiens; HEPG2 (liver), 72 hr; Responder Cell Lines
Description: as §1, §2

JIMT1 = conditions: Homo sapiens, JIMT-1; JIMT1 (breast), 72 hr; Responder Cell Lines
Description: as §1, §2

PC3 = conditions: Homo sapiens, PC-3; PC3 (prostate), 72 hr; Non-Responder Cell Lines with IC50 >10 uM or Not Determined
Description: as §1, §2

PANC1005 = conditions: Homo sapiens, Panc1005, 72 h, PANC1005 (pancreas)
Description: as §1, §2

BT20 = conditions: Homo sapiens, BT-20; BT20 (breast), 72 hr; Non-Responder Cell Lines with IC50 >10 uM or Not Determined
Description: as §1, §2

SKLMS1 = conditions: Homo sapiens, SK-LMS-1; SKLMS1 (uterus), 72 hr; Non-Responder Cell Lines with IC50 >10 uM or Not Determined
Description: as §1, §2

MDAMB435 = conditions: Homo sapiens, MDA-MB-435; MDAMB435 (skin), 72 hr; Responder Cell Lines
Description: as §1, §2

A549 = conditions: Homo sapiens; A549 (lung), 72 hr; Responder Cell Lines
Description: as §1, §2

NCIH292 = conditions: Homo sapiens, NCI-H292; NCIH292 (lung), 72 hr; Non-Responder Cell Lines with IC50 >10 uM or Not Determined
Description: as §1, §2

JAR = JAR (placenta), 72 hr; Responder Cell Lines
Description: as §1, §2

[1] = Non-Responder Cell Lines with IC50 >10 uM or Not Determined

CC(C)(O)c1cc(-c2csc(-c3ccc(C(=O)N4CCC(O)CC4)cc3Cl)c2)ccn1 [Compound 1, (3-chloro-4-(4-(2-(2-hydroxypropan-2-yl)pyridin-4-yl)thiophen-2-yl)phenyl)(4-hydroxypiperidin-1-yl)methanone]
IC50 (EFO21): < 10 µM | IC50 (HL-60): < 10 µM | IC50 (ACHN): < 10 µM | IC50 (LOVO): < 10 µM | IC50 (NCIH358M): > 10 µM | IC50 (NCIH460): > 10 µM | IC50 (L-363): < 10 µM | IC50 (T24): > 10 µM | IC50 (SKMEL28): > 10 µM | IC50 (K-562): < 10 µM | IC50 (SKMEL5; [1]): > 10 µM | IC50 (SKMEL5; Responder Cell Lines): < 10 µM | IC50 (SKNAS): > 10 µM | IC50 (OVCAR3; [1]): > 10 µM | IC50 (OVCAR3; Responder Cell Lines): < 10 µM | IC50 (ASPC1): < 10 µM | IC50 (PLCPRF5; [1]): > 10 µM | IC50 (PLCPRF5; Responder Cell Lines): < 10 µM | IC50 (HEPG2): < 10 µM | IC50 (JIMT1): < 10 µM | IC50 (PC3): > 10 µM | IC50 (PANC1005; [1]): > 10 µM | IC50 (PANC1005; Responder Cell Lines): < 10 µM | IC50 (BT20): > 10 µM | IC50 (SKLMS1): > 10 µM | IC50 (MDAMB435): < 10 µM | IC50 (A549): < 10 µM | IC50 (NCIH292): > 10 µM | IC50 (JAR): < 10 µM
